Like-named read-outs stand apart in the source and are kept apart here.
What was measured:
[1] = molecular target: T1, Bovine serum albumin (BSA) (Bos taurus, UniProt P02769); assay: BSA fluorescence quenching; format: binding; details: λmax = 345 nm; for Quenching rate constant (Kq), BSA emission: τ0 = 10^−8 s
[2] = system: tRNA; assay: Ethidium bromide displacement, fluorescence quenching of EB-tRNA adduct; format: binding, yeast; details: λem = 580 nm; for Quenching constant (Ksv), emission spectroscopy, tRNA: EB 5 μM, RNA 50 μM, [Q] 10–200 μM
[3] = Solution stability by UV-visible spectroscopy in PBS; format: physicochemical; details: PBS pH 7.2 / DMSO, 2.5 × 10^−5 M, up to 48 h
[4] = system: HeLa cervical carcinoma cells; assay: MTT in vitro cytotoxicity, HeLa; format: cell-based, human; details: for Selective index (SI), HeLa: vs WI38; for IC50: read-out: In vitro cytotoxicity IC50, HeLa
[5] = system: WI38 normal lung fibroblast cells; assay: MTT in vitro cytotoxicity, WI38; format: cell-based, human; details: read-out: In vitro cytotoxicity IC50, WI38
[6] = system: ctDNA; assay: UV-visible absorption titration with ctDNA; format: binding, calf thymus; details: Tris–HCl buffer pH 7.2
[7] = system: tRNA; assay: UV-visible absorption titration with tRNA; format: binding, yeast; details: Tris–HCl buffer pH 7.2
[8] = system: ctDNA; assay: Ethidium bromide displacement, fluorescence quenching of EB-ctDNA adduct; format: binding, calf thymus; details: λem = 580 nm; for Quenching constant (Ksv), emission spectroscopy, ctDNA: EB 5 μM, DNA 50 μM, [Q] 10–200 μM
[9] = system: MCF7 breast carcinoma cells; assay: MTT in vitro cytotoxicity, MCF7; format: cell-based, human; details: for Selective index (SI), MCF7: vs WI38; for IC50: read-out: In vitro cytotoxicity IC50, MCF7
[10] = molecular target: T1, Bovine serum albumin (BSA); assay: BSA absorption titration; format: binding; details: λmax = 278 nm
[11] = system: HeLa cervical carcinoma cells; details: read-out: In vitro cytotoxicity IC50, HeLa; 48 h ref [85]; cited from earlier work
[12] = system: MCF7 breast carcinoma cells; details: read-out: In vitro cytotoxicity IC50, MCF7; 24 h ref [84]; cited from earlier work
[13] = system: HeLa cells; assay: Cell cycle distribution by flow cytometry; format: cell-based, human; details: IC50 concentration, 24 h, control 20.3%
[14] = system: HeLa cells; assay: Annexin V/propidium iodide flow cytometry; format: cell-based, human; details: IC50, 24 h

T1 sequence (P02769 25-607): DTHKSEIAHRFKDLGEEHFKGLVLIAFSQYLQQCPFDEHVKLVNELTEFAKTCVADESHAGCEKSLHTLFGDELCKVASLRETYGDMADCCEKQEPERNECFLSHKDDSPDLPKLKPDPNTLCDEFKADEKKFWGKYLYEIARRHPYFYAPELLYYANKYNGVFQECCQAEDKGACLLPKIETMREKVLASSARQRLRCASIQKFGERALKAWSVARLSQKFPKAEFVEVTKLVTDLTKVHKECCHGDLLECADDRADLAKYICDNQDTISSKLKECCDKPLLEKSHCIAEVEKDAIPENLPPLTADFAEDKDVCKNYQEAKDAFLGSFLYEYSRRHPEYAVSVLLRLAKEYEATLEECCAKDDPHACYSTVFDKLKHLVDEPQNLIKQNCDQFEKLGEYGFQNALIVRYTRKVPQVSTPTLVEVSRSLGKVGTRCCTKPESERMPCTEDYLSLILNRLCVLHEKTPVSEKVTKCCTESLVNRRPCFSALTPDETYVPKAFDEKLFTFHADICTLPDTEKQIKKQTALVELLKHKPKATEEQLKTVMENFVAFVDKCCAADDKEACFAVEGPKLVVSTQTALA

Row | % hypo, BSA emission spectroscopy [1] [%] | Number of binding sites (n), BSA emission [1] | Stern–Volmer quenching constant (Ksv), BSA emission [1] | Quenching rate constant (Kq), BSA emission [1] [M⁻¹ s⁻¹] | % H, emission spectroscopy, tRNA [2] [%] | Quenching constant (Ksv), emission spectroscopy, tRNA [2] | % H, emission spectroscopy, ctDNA [8] [%] | Quenching constant (Ksv), emission spectroscopy, ctDNA [8] | Compound | Solution stability (changes of UV-visible spectrum with time) [3] | Selective index (SI), HeLa ([4]; 24 h) | Selective index (SI), HeLa ([4]; 48 h) | IC50 ([4]; 24 h) [µM] | IC50 ([4]; 48 h) [µM] | IC50 ([5]; 24 h) [µM] | IC50 ([5]; 48 h) [µM] | % H* (hypochromism), absorption spectroscopy, ctDNA [6] [%] | % H* (hypochromism), absorption spectroscopy, tRNA [7] [%] | Selective index (SI), MCF7 ([9]; 24 h) | IC50 ([9]; 24 h) [µM] | IC50 ([9]; 48 h) [µM] | further results
1 | 27.18 | 0.93 | 2.33 × 10^4 | 2.33e+12 | 26.1 | 1.19 ×10^4 | 32.4 | 0.34 ×10^4 | 3-acetylcoumarin benzoylhydrazone [HL] | insignificant changes up to the first 3 h then suffered hydrolysis in the aqueous media through the next 24 h | 1.15 | 1.57 | 61.6 ± 3.1 | 47.6 ± 2.9 | 71.1 ± 3.4 | 75 ± 3.5 | 8.35 | 7.20 | 1.74 | 40.8 ± 2.6 | 36.8 ± 2.4 | Selective index (SI), MCF7 ([9]; 48 h): 2.03; % hyper (hyperchromism), BSA absorption spectroscopy [10]: 39.03%
2 | – | – | – | – | – | – | – | – | N.N.[Cl][Pt][Cl] [Cisplatin, cis-platin] | – | – | – | – | – | – | – | – | – | – | – | – | IC50 [11]: 67.6 ± 2 µM; IC50 [12]: 31.2 ± 1.8 µM
3 | 35.69 | 0.92 | 4.98 × 10^4 | 4.98e+12 | 26.9 | 1.6 ×10^4 | 50.1 | 0.52 ×10^4 | [Ag(HL)2]NO3 [Complex C3] | slight decrease in absorption intensity | 1.93 | 1.95 | 39.1 ± 2.5 | 32.5 ± 2.3 | 75.4 ± 3.6 | 63.6 ± 3.3 | 6.81 | 6.66 | 1.28 | 58.8 ± 2.9 | 54 ± 3 | % hyper (hyperchromism), BSA absorption spectroscopy [10]: 40.74%
4 | 42.63 | 1.03 | 5.39 × 10^4 | 5.39e+12 | 48.8 | 4.51 ×10^4 | 54.2 | 1.42 ×10^4 | [Pt(HL)Cl]Cl [Complex C2] | insignificant changes during the 48 h test | 3.63 | 4.95 | 8.12 ± 0.7 | 6.31 ± 0.4 | 29.5 ± 2.2 | 31.3 ± 2.2 | 10.4 | 7.60 | 2.39 | 12.3 ± 0.9 | 8.61 ± 0.6 | Cells in G2/M phase [13]: 20.3%; Change of necrotic cells compared to untreated HeLa cells [14]: 1.6 fold; Selective index (SI), MCF7 ([9]; 48 h): 3.63; % hyper (hyperchromism), BSA absorption spectroscopy [10]: 11.90%
